We go through one compound from ChEMBL document CHEMBL3870324, “Asnovolins A-G, Spiromeroterpenoids Isolated from the Fungus Aspergillus novofumigatus, and Suppression of Fibronectin Expression by Asnovolin E” (J Nat Prod, 2016).

Test [1] is filed under the species Homo sapiens. Put plainly: Inhibition of fibronectin expression in HNDF after 24 hrs by Western blot analysis. Type of test: functional.
The species entered for test [2] is Homo sapiens. Put plainly: Inhibition of fibronectin expression in HNDF at 25 uM after 24 hrs by Western blot analysis relative to control. It is filed as functional. (Immunoblotting shows a protein as a band on a membrane.)

The inhibition is the drop in the measured response relative to a control, in per cent.

With `C=C(C)[C@@H]1CC[C@H](C)[C@@]2(C[C@@]3(C)C(=C(C)C(=O)[C@@H](C(=O)OC)[C@@H]3C)O2)[C@@]1(C)CCC(=O)OC`, the inhibition result in the test listed under Homo sapiens [1] was “Dose-dependent effect”; in the test filed under Homo sapiens [2], 87%.
